This is an account of results in ChEMBL document CHEMBL2440042, “Anti-proliferative activity of hydnocarpin, a natural lignan, is associated with the suppression of Wnt/β-catenin signaling pathway in colon cancer cells” (Bioorg Med Chem Lett, 2013).

SMILES strings stand for the structures.

Test [1] concerns SW480. Nature of the test: Inhibition of Wnt/beta-catenin signaling pathway in human SW480 cells assessed as CK1-alpha protein expression at 10 uM after 24 hrs by Western blotting analysis relative to vehicle-treated control. (Immunoblotting shows a protein as a band on a membrane.)
For test [2], the system named is SW480. The test is described as follows: Inhibition of Wnt/beta-catenin signaling pathway in human SW480 cells assessed as CK1-alpha protein expression at 10 uM after 12 hrs by Western blotting analysis relative to vehicle-treated control.

On to `COc1cc([C@H]2Oc3ccc(-c4cc(=O)c5c(O)cc(O)cc5o4)cc3O[C@@H]2CO)ccc1O` (relative stereo), for which the results for the “fold change (FC)” value in test [1] and in test [2] were 1.2 and 0.9, respectively.
